Reference: PubChem BioAssay AID1918994 (Molecular Pharmacology Branch, DTP, NCI, 2023)

Tested on: 292921-168-R-J2-PDC complex spheroid growth
Test: Anticancer human tumor 292921-168-R-J2-PDC patient-derived pancreatic carcinoma cell line growth inhibition [AhR]
Settings: for IC50: curve of first compound; for viability, T/C: stronger effect = lower value; active means viability on the fitted dose curve at most 10% of control; inactive means the rest
From the text: Multicellular complex tumor spheroid response to aryl hydrocarbon receptor antagonists in combination with a variety of drugs and investigational agents in selected tumor cell lines
The current study was undertaken to assess response to aryl hydrocarbon receptor antagonists in combination with standard-of-care drugs and investigational agents in solid tumor complex spheroid models. Complex spheroids include a stromal component modeled by human endothelial cells (HUVEC) and fibroblasts modeled by human mesenchymal stem cells (MSCs). The concentration ranges selected for each drug and investigational agent were based upon clinically achievable concentrations if the clinical Cmax of the agent was known.
Compounds. The drugs and investigational agents: BAY 2416964 (NSC825713), GNF351 (NSC835774), CH-223191 (NSC835775), CPI-455 (NSC825282), aza-TdCyd (NSC777586), decitabine (NSC127716), belinostat (NSC758774), entinostat (NSC756642), pevonedistat (NSC761192), tazemetostat (NSC777109), talazoparib (NSC765396), olaparib (NSC753686), selinexor (NSC780203), nedisertib (M3814, NSC802822), bortezomib (NSC756655), venetoclax (NSC766270), doxorubicin (NSC123127), elimusertib (BAY189344, NSC800525), ceralasertib (AZD6738, NSC777638), TAK-243 (NSC785004), alisertib (NSC759677), etoposide (NSC141540), topotecan (NSC609699), eribulin (NSC707389), gemcitabine (NSC613327), carboplatin (NSC241240), cisplatin (NSC119875), and SN-38 (NSC673596) were obtained from the National Cancer Institute (NCI) Developmental Therapeutics Program Chemical Repository (32). The FDA-approved anticancer drug set is available from the Developmental Therapeutics Program at https://dtp.cancer.gov/organization/dscb/obtaining/available plates.htm. […] The stock solutions were prepared in dimethyl sulfoxide (DMSO, Sigma-Aldrich, St. Louis, MO, cat. D2650), except for the platinum compounds which were prepared in saline (Quality Biological, Gaithersburg, MD, cat. 114-055-101), at 800-fold the tested concentration and stored at -70 degrees C prior to their use. All drugs and investigational agents were tested over a range starting from a high concentration at or near the clinical Cmax and decreasing in half-log increments. If the clinical Cmax for an agent had not been determined, the highest concentration tested was 10 microM (Table 1).
Cell Culture. All cells were maintained in an incubator at 37 degrees C and 5% CO2 with 95% humidity. The PDC lines were cultured according to standard operating procedures established by the NCI PDMR (https://pdmr.cancer.gov). Briefly, all PDCs were thawed and cultured in Matrigel-coated flasks prepared with a working solution of 1X Ham's F-12 nutrient mix, without supplementation (Invitrogen, Waltham, MA, cat. 11765054), 100 U/mL penicillin-streptomycin (Invitrogen, cat. 15140122), and 2.5% Matrigel (Corning Inc., Corning, NY, cat. 354248) for the first three passages. All PDCs were cultured in complete DMEM/F-12 media containing advanced DMEM/F-12 (Invitrogen, cat. 12634028), 4.9% defined fetal bovine serum, heat inactivated (HyClone Laboratories Inc., Logan, UT, cat. SH30070.03HI), 389 ng/mL hydrocortisone (Sigma-Aldrich, cat. H4001), 9.7 ng/mL human EGF recombinant protein (Invitrogen, cat. PHG0313), 23.4 microg/mL adenine (Sigma-Aldrich, cat. A2786), 97.3 U/mL penicillin-streptomycin (Invitrogen, cat. 15140122), 1.9 mM L-glutamine (Invitrogen, cat. 25030081), and 9.7 microM Y-27632 dihydrochloride (Tocris Bioscience, Bristol, United Kingdom, cat. 1254). The PDCs were cultured in complete DMEM/F12 media without 10 microM Y-27632 dihydrochloride for at least two passages prior to the screen. The established cell lines NCI-H1341 and […] were cultured in DMEM/F-12, HEPES (Invitrogen, cat. 11330032), 5% defined fetal bovine serum (HyClone Laboratories Inc., cat. SH30070.03), ITS premix universal culture supplement [insulin (5 microg/mL), transferrin (5 microg/mL), and selenious acid (5 ng/mL)] […]
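Further: spheroids exposed to compounds for seven days after three days of growth.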

CCc1c2c(nc3ccc(O)cc13)-c1cc3c(c(=O)n1C2)COC(=O)[C@]3(O)CC + CC(CO)NC(=O)c1cc(-c2ccc(Cl)cc2)nn(-c2cnn(C)c2)c1=O
1.02 nM: IC50 (second compound 1 µM)
1.79 nM: IC50 (second compound 0.1 µM)
inactive: viability, T/C (second compound 0.1 µM, first compound 0.000949 µM) 55.6% | viability, T/C (second compound 0.1 µM, first compound 0.003 µM) 46.4% | viability, T/C (second compound 0.1 µM, first compound 0.00949 µM) 20.9% | viability, T/C (second compound 0.316 µM, first compound 0.000949 µM) 49.2% | viability, T/C (second compound 0.316 µM, first compound 0.003 µM) 42% | viability, T/C (second compound 0.316 µM, first compound 0.00949 µM) 22.7% | viability, T/C (second compound 0.316 µM, first compound 0.03 µM) 12% | viability, T/C (second compound 1 µM, first compound 0.000949 µM) 49.8% | viability, T/C (second compound 1 µM, first compound 0.003 µM) 43.3% | viability, T/C (second compound 1 µM, first compound 0.00949 µM) 21.9% | viability, T/C (second compound 1 µM, first compound 0.03 µM) 12.9% | viability, T/C (second compound 3.16 µM, first compound 0.000949 µM) 44.4% | viability, T/C (second compound 3.16 µM, first compound 0.003 µM) 32.9% | viability, T/C (second compound 3.16 µM, first compound 0.00949 µM) 21.2% | viability, T/C (second compound 3.16 µM, first compound 0.03 µM) 11.3% | viability, T/C (second compound 10 µM, first compound 0.000949 µM) 38.2% | viability, T/C (second compound 10 µM, first compound 0.003 µM) 31.2% | viability, T/C (second compound 10 µM, first compound 0.00949 µM) 20.5% | viability, T/C (second compound 10 µM, first compound 0.03 µM) 12%
active: viability, T/C (second compound 0.1 µM, first compound 0.03 µM) 12.4% | viability, T/C (second compound 0.1 µM, first compound 0.0949 µM) 5.44% | viability, T/C (second compound 0.1 µM, first compound 0.3 µM) 3.22% | viability, T/C (second compound 0.316 µM, first compound 0.0949 µM) 6.1% | viability, T/C (second compound 0.316 µM, first compound 0.3 µM) 3.45% | viability, T/C (second compound 1 µM, first compound 0.0949 µM) 7.22% | viability, T/C (second compound 1 µM, first compound 0.3 µM) 3.97% | viability, T/C (second compound 3.16 µM, first compound 0.0949 µM) 6.34% | viability, T/C (second compound 3.16 µM, first compound 0.3 µM) 3.5% | viability, T/C (second compound 10 µM, first compound 0.0949 µM) 6.27% | viability, T/C (second compound 10 µM, first compound 0.3 µM) 4.4%
< 0.949 nM: IC50 (second compound 0.316 µM) | IC50 (second compound 3.16 µM) | IC50 (second compound 10 µM)
